Molecules are shown by their SMILES. Where two headings read alike, the source gives them in different places.

Data set [1] has as its system CuSO4-induced transgenic fluorescent zebrafish (Tg: zlyz-EGFP). Nature of the data set: Anti-inflammatory assay in CuSO4-induced transgenic fluorescent zebrafish (macrophage count around neuromasts). In kind it is in vivo. As to conditions: for Number of macrophages around nerve mound (mean ± SEM): Table S15. Here is the method:
On account of the fact that research on the anti-inflammatory activity of lobane diterpenoids in zebrafish models has not been reported up to now, we attempted to identify lobane diterpenoids with anti-inflammatory activity in zebrafish models. The anti-inflammatory effect of compounds 1–7 was assessed in CuSO4-induced transgenic fluorescent zebrafish. CuSO4 can produce an intense acute inflammatory response in the neuromasts and mechanosensorial cells in the lateral line of zebrafish, stimulating the infiltration of macrophages. Thus, the number of macrophages surrounding the neuromasts in zebrafish can be observed and counted under a fluorescence microscope. Therefore, the anti-inflammatory activity of these lobane diterpenoids can be evaluated.
Figure 5 Anti-inflammatory assays of compounds 1–7. (a) Images of inflammatory sites in CuSO4-induced transgenic fluorescent zebrafish (Tg: zlyz-EGFP) expressing enhanced green fluorescent protein (EGFP) treated with compounds 1–7, using indomethacin as a positive control.
Healthy macrophage fluorescent transgenic zebrafish (Tg: zlyz-EGFP) were provided by the Biology Institute of Shandong Academy of Science (Jinan, China). The zebrafish maintenance and anti-inflammation assay were carried out as previously described. Each zebrafish larva was photographed using a fluorescence microscope (AXIO, Zom.V16), and the number of macrophages around the nerve mound was calculated using Image-Pro Plus 6.0 software (Rockville, MD, USA). One-way analysis of variance was conducted using GraphPad Prism 7.00 software (San Diego, CA, USA). Lobocatalens A–G (1–7) were tested for anti-inflammatory activities in the zebrafish models. Three dpf (days post-fertilization), healthy macrophage fluorescent transgenic zebrafish were used as animal models to evaluate the anti-inflammatory effects of compounds 1–7.

Data set [2] can be described thus: Cytotoxicity assay, MTT method, K562. Type of data set: cell-based, human. To be noted: human, K562 leukemia cells; K562 cell line, MTT method; read-out: Cytotoxic activity (IC50). The procedure: (§1) Moreover, the cytotoxic activity of these isolated compounds (1–7) was evaluated against the human leukemia K562, normal human hepatocyte L-02, human pancreatic cancer ASPC-1, and human breast cancer MDA-MB-231 cell lines.
(§2) The MTT method was used to evaluate cytotoxicity against the K562 (human leukemia) cell line, and the SRB method was used to evaluate cytotoxicity against the L-02 (normal human hepatocytes), ASPC-1 (human pancreatic cancer), and MDA-MB-231 (human breast cancer) cell lines. As a positive control, Adriamycin (doxorubicin) was used.
(In general: Tetrazolium assays rely on reduction of a dye to a coloured formazan, in cell work by metabolically active cells.)

The subject of data set [3] is K562 (human leukemia) cell line. Kind of data set: Cytotoxicity assay, MTT method, K562. As to conditions: Homo sapiens, read-out: Inhibition rate (%); for inhibition at 30 µM: K562, K562, 30 μM; for inhibition at 1 µM: K562, K562, 1 μM, positive control. In kind it is cell-based. The procedure:
as §1, §2

Data set [4] is described as follows: Cytotoxicity assay, SRB method, L-02. In kind it is cell-based, human. As to conditions: human, L-02 normal hepatocyte cells; L-02 cell line, SRB method; read-out: Cytotoxic activity (IC50). The procedure:
as §1, §2
In general terms: Sulforhodamine B stains cellular protein and so reports cell mass.

Data set [5] deals with L-02 (normal human hepatocytes) cell line. Nature of the data set: Cytotoxicity assay, SRB method, L-02. As to conditions: Homo sapiens, Hepatocyte, Table S16, read-out: Inhibition rate (%); for inhibition at 30 µM: L-02, 30 μM. Type of data set: cell-based. The procedure:
as §1, §2

Data set [6] in a line: Cytotoxicity assay, SRB method, MDA-MB-231. Type of data set: cell-based, human. To be noted: human, MDA-MB-231 breast cancer cells; MDA-MB-231 cell line, SRB method; read-out: Cytotoxic activity (IC50). The procedure:
as §1, §2

For data set [7], the system named is MDA-MB-231 (human breast cancer) cell line. Kind of data set: Cytotoxicity assay, SRB method, MDA-MB-231. Type of data set: cell-based. As to conditions: Homo sapiens, Table S16, read-out: Inhibition rate (%); for inhibition at 30 µM: MDA-MB-231, 30 μM. The procedure: as §1, §2
Data set [8] in a line: Cytotoxicity assay, SRB method, ASPC-1. In kind it is cell-based, human. To be noted: human, ASPC-1 pancreatic cancer cells; ASPC-1 cell line, SRB method; read-out: Cytotoxic activity (IC50). Here is the method:
as §1, §2

Data set [9] concerns ASPC-1 (human pancreatic cancer) cell line. Nature of the data set: Cytotoxicity assay, SRB method, ASPC-1. As to conditions: Homo sapiens, ASPC1, Table S16, read-out: Inhibition rate (%); for inhibition at 30 µM: ASPC-1, 30 μM. In kind it is cell-based. Here is the method:
as §1, §2

[10] abbreviates: Danio rerio, Macrophage, 20 μM, Table S15, read-out: Inhibition rate.

What is called inhibition is the share of the control response that was lost under treatment. One may read the IC50 as the concentration that gives 50% inhibition. Take `C=CC1(C)CCC(C2=CCC3OC2OC3(C)C)CC1C(=C)C` (stereo not drawn) [Compound 1, Lobocatalen A]: the “Number of macrophages around nerve mound (mean ± SEM)” value (from here on “Number … (mean ± SEM)”) in data set [1] (20 μM) was found to be 25.67 ± 3.14. In data set [1] (setting [10]), the inhibition at 20 µM was 19.5%. In addition, the IC50 in [2], in data set [4] and in data set [6] was above 30 µM throughout. Besides, the results for the inhibition at 30 µM in data set [3] (Table S16), in data set [5] and in data set [7] were 39.9%, 24.9% and 21.9%, respectively.

Turning to `C=CC1(C)CCC(C2=CCC(C(C)(C)O)OC2O)CC1C(=C)C` (stereo not drawn) [Compound 2, Lobocatalen B], in data set [1] (20 μM), the “Number … (mean ± SEM)” value was 30.00 ± 3.047. For the same compound, the inhibition at 20 µM in data set [1] (setting [10]) was 5.93%. Moreover, the IC50 in [2], in data set [4] and in data set [6] was above 30 µM throughout. In addition, the values for the inhibition at 30 µM in data set [3] (Table S16), in data set [5] and in data set [7] were 48.7%, 30.2% and 24.2%, respectively.

For `C=CC1(C)CCC(C2=COC(C(C)(C)O)CC2=O)CC1C(=C)C` (stereo not drawn) [Compound 3, Lobocatalen C], the “Number … (mean ± SEM)” value in [1] (20 μM) was determined as 25.30 ± 1.904. In addition, in data set [1] (setting [10]), the inhibition at 20 µM came out at 20.7%. In addition, the IC50 in [2], in data set [4], in data set [8] and in [6] was above 30 µM each time. Also, the inhibition at 30 µM was found to be 43.5% in data set [3] (Table S16), 22.1% in data set [5], 18.6% in [9] and 19.9% in data set [7].

On to `C=CC1(C)CCC(C(C)=CC(=O)CC(C)(C)O)CC1C(=C)C` (stereo not drawn) [Compound 4, Lobocatalen D], for which the “Number … (mean ± SEM)” value in data set [1] (20 μM) is on record as 22.22 ± 2.737. Also, in [1] (setting [10]), the inhibition at 20 µM turned out to be 30.3%. Besides, the IC50 in data set [2], in data set [4], in [8] and in data set [6] was above 30 µM throughout. In addition, the inhibition at 30 µM in data set [3] (Table S16) was 36.7%; in [5], 21.6%; in data set [9] it was 18.9%; in data set [7] it was 18.4%.

As to `C=CC1(C)CCC(C(=C)CCC(=O)C(C)(C)O)CC1C(=C)C` (stereo not drawn) [Compound 5, Lobocatalen E], the “Number … (mean ± SEM)” value in data set [1] (20 μM) came out at 21.89 ± 3.199. Also, the inhibition at 20 µM in data set [1] (setting [10]) came to 31.4%. The concentration for half-maximal inhibition (IC50) in data set [2] is above 30 µM. The inhibition at 30 µM in data set [3] (Table S16) was 34.3%.

As to `C=CC1(C)CCC(C(C)=CC=CC(C)=O)CC1C(=C)C` (stereo not drawn) [Compound 6, Lobocatalen F], the “Number … (mean ± SEM)” value in data set [1] (20 μM) was 26.2 ± 2.356. In data set [1] (setting [10]), the inhibition at 20 µM came to 17.8%. The half-maximal inhibitory concentration (IC50) in [4] was above 30 µM. Besides, the inhibition at 30 µM in [5] is 25.4%.

On to `C=CC1(C)CCC(C(=O)C=CC(OC(C)=O)C(C)(C)O)CC1C(=C)C` (stereo not drawn) [Compound 7, Lobocatalen G], for which, in data set [1] (20 μM), the “Number … (mean ± SEM)” value amounted to 18.6 ± 1.805. Moreover, the “Anti-inflammatory activity (in words)” value in data set [1] (20 μM, migration and number of macrophages surrounding the neuromasts) is given as “moderate anti-inflammatory activity”. Further, in data set [1] (setting [10]), the inhibition at 20 µM stood at 41.7%. The IC50 in data set [2] was 28 µM; in data set [4], above 30 µM; in data set [8], above 30 µM; in data set [6], above 30 µM. The inhibition at 0.9375 µM in data set [3] (K562, K562, 0.9375 μM, Table S17) was determined as 5.87%. The inhibition at 1.875 µM in [3] (K562, K562, 1.875 μM, Table S17) turned out to be 9.55%. The inhibition at 3.75 µM in [3] (K562, K562, 3.75 μM, Table S17) amounted to 11.6%. In addition, in data set [3] (K562, K562, 7.5 μM, Table S17), the inhibition at 7.5 µM came to 15.5%. The inhibition at 15 µM in data set [3] (K562, K562, 15 μM, Table S17) was 21%. Besides, the inhibition at 30 µM came to 63.5% in data set [3] (Table S16); 73.3% in [3] (Table S17); 29.8% in [5]; 17.5% in data set [9]; 10.4% in data set [7].

Consider `COc1ccc2c(c1)c(CC(=O)O)c(C)n2C(=O)c1ccc(Cl)cc1` [Indomethacin, reference compound], for which, in data set [1] (40 μM, positive control), the “Number … (mean ± SEM)” value is given as 11.88 ± 1.575. Moreover, the inhibition at 40 µM in [1] (Danio rerio, Macrophage, 40 μM, positive control, Table S15, read-out: Inhibition rate) is 62.8%.

For the compound `COc1cccc2c1C(=O)c1c(O)c3c(c(O)c1C2=O)C[C@@](O)(C(=O)CO)C[C@@H]3O[C@H]1C[C@H](N)[C@H](O)[C@H](C)O1` [doxorubicin, reference compound], the IC50 in [2], in data set [4], in data set [8] and in data set [6] was below 1 µM throughout. Further, the inhibition at 1 µM was found to be 100% in data set [3] (Table S16); 100% in [3] (Table S17); 83% in [5] (L-02, 1 μM, positive control); 52% in data set [9] (ASPC-1, 1 μM, positive control); 55.9% in data set [7] (MDA-MB-231, 1 μM, positive control).

Values taken from paper PMC10143306, “Seven New Lobane Diterpenoids from the Soft Coral Lobophytum catalai” (Marine Drugs, 2023).
